Where two headings read alike, the source gives them in different places.
Molecular target: T1, Human DNMT3b/3L (Homo sapiens, UniProt Q9UBC3)
T1 construct: truncated 3b (catalytic domain)
Test: DNMT inhibition assay (3H-SAM filter-binding) against DNMT3b/3L
Assay type: biochemical
Details: read-out: IC50 against DNMT 3b/3L
Procedure: DNMT Assays Used for Examples 1-114
Human DNMT3b/3L was coexpressed using truncated 3b (catalytic domain) and 3L (DNA binding domain) at GSK. Human full-length DNMT1 enzyme purchased from BPS Biosciences. Poly(dIdC) DNA (Sigma) was used at 0.002 mg/mL. Tritiated SAM (Perkin Elmer) was used at 500 nM. DNA, DNMT enzyme, and inhibitors were mixed with assay buffer (20 mM Tris pH8, 5% glycerol, 1 mM EDTA, 100 μg/mL BSA, 1 mM DTT, 50 mM NaCl) and pre-incubated without SAM for 30 min. H3 SAM was then added to initiate the methylation reaction which continues at 37° C. for 1 h. Reaction mixture was then transferred to a filter plate (Millipore Multiscreen HTS DE), then washed with 50 mM H2PO4 and 95% Ethanol. Scintillation counts were measured on the Perkin Elmer Microbeta scintillation counter.
DNMT Assays Used for Examples 115-120
DNMT enzymes were produced by GlaxoSmithKline. Human DNMT3b/3L was coexpressed using truncated 3b (catalytic domain) and 3L (DNA binding domain). DNMT1 was human, full-length protein. 3H-SAM was purchased from Perkin Elmer. Custon DNA oligonucleotide substrates were purchased from Integrated DNA technologies.
28-mer DNA Oligonucleotide Duplex (for DNMT3b/3L)
DNMT enzyme was preincubated with compound for 1 hr at RT, after which SAM and DNA were added to initiate the methylation reaction. The methylation reaction was quenched after 20 min upon the addition of >100 fold excess non-radioactive SAM. The quenched reaction mixture (80%) was transferred to a DEAE filter binding plate (Millipore Multiscreen HTS DE), washed with 3 volumes of 50 mM phosphate buffer and dried. Scintillation cocktail (MicroScint-20) was added to the plate and radioactivity (3H-DNA) was measured using a Perkin Elmer TopCount scintillation counter.
Final reagent concentrations (prior to quench) consisted of the following:
DNMT3b/3L (10 nM), 200 nM DNA, 200 nM 3H-SAM in 20 mM Tris (pH 8), 1 mM DTT, 1 mM EDTA, 25 mM NaCl, 1 mM CHAPS and 2% DMSO.

[1] = at least one experimental run or average of several runs, Examples 1-114 and 115-120 use different protocols

| SMILES | IC50 [1] [µM] | IC50 [µM] |
| --- | --- | --- |
| S=C(NCc1ccccc1-c1nccs1)NCc1ccnc2[nH]ccc12 [Example 111, 1-((1H-Pyrrolo[2,3-b]pyridin-4-yl)methyl)-3-(2-(thiazol-2-yl)benzyl)thiourea] | ≤ 10 |  |
| O=C(C#Cc1ccccc1)Nc1cccc(CNC(=O)NCc2ccnc3[nH]cc(Cl)c23)c1 [Example 53, N-(3-((3-((3-chloro-1H-pyrrolo[2,3-b]pyridin-4-yl)methyl)ureido)methyl)phenyl)-3-phenylpropiolamide] |  | ≤ 1 |
| O=C(C#Cc1ccccc1)Nc1cccc(CCC(=O)NCc2ccnc3[nH]ccc23)c1 [Example 19, N-(3-(3-(((1H-pyrrolo[2,3-b]pyridin-4-yl)methyl)amino)-3-oxopropyl)phenyl)-3-phenylpropiolamide] |  | ≤ 1 |
| O=C(C#Cc1ccccc1)NCCNS(=O)(=O)NCc1ccnc2[nH]ccc12 [Example 50, N-(2-((N-((1H-pyrrolo[2,3-b]pyridin-4-yl)methyl)sulfamoyl)amino)ethyl)-3-phenylpropiolamide] | ≤ 10 |  |
| COc1ccc(C#CC(=O)NCCNC(=S)NCc2ccnc3[nH]ccc23)cc1 [Example 11, N-(2-(3-((1H-Pyrrolo[2,3-b]pyridin-4-yl)methyl)thioureido)ethyl)-3-(4-methoxyphenyl)propiolamide] |  | ≤ 10 |
| O=C(C#CC1CCCC1)Nc1cccc(CNC(=O)NCc2ccnc3[nH]ccc23)c1 [Example 118, N-(3-((3-((1H-pyrrolo[2,3-b]pyridin-4-yl)methyl)ureido)methyl)phenyl)-3-cyclopentylpropiolamide] | ≤ 1 |  |
| O=C(C#Cc1ccccc1)Nc1cccc(CNC(=N[N+](=O)[O-])NCc2ccnc3[nH]ccc23)c1 [Example 24, N-(3-((3-((1H-pyrrolo[2,3-b]pyridin-4-yl)methyl)-2-nitroguanidino)methyl)phenyl)-3-phenylpropiolamide] | ≤ 1 |  |
| O=C(C#Cc1ccccc1)N1CCCC(CNS(=O)(=O)NCc2ccnc3[nH]ccc23)C1 (stereo not shown) [Example 48, 1-((1H-pyrrolo[2,3-b]pyridin-4-yl)methyl)-3-((1-(3-phenylpropioloyl)piperidin-3-yl)methyl)sulfuric diamide] |  | ≤ 1 |
| C=CC(=O)Nc1ccc(F)c(CNC(=S)NCc2ccnc3[nH]ccc23)c1 [Example 74, N-(3-((3-((1H-pyrrolo[2,3-b]pyridin-4-yl)methyl)thioureido)methyl)-4-fluorophenyl)acrylamide] | ≤ 10 |  |
| C=CC(=O)Nc1cc(CNC(=S)NCc2ccnc3[nH]ccc23)ccc1Cl [Example 76, N-(5-((3-((1H-pyrrolo[2,3-b]pyridin-4-yl)methyl)thioureido)methyl)-2-chlorophenyl)acrylamide] | ≤ 1 |  |
| O=C(C#Cc1ccccc1)Nc1cccc(CNC(=O)NCc2ccnc3[nH]ccc23)c1 [Example 1, N-(3-((3-((1H-Pyrrolo[2,3-b]pyridin-4-yl)methyl)ureido)methyl)phenyl)-3-phenylpropiolamide] |  | ≤ 1 |
| O=C(C#Cc1ccccc1)NCc1ccccc1CNC(=S)NCc1ccnc2[nH]ccc12 [Example 56, N-(2-((3-((1H-pyrrolo[2,3-b]pyridin-4-yl)methyl)thioureido)methyl)benzyl)-3-phenylpropiolamide] |  | ≤ 1 |
| O=C(NCc1ccnc2[nH]cc(Cl)c12)NC1CCN(C(=O)C#Cc2ccccc2)C1 (stereo not shown) [Example 64, 1-((3-chloro-1H-pyrrolo[2,3-b]pyridin-4-yl)methyl)-3-(1-(3-phenylpropioloyl)pyrrolidin-3-yl)urea] |  | ≤ 10 |
| O=C(C#Cc1ccccc1)NCCCNC(=O)NCc1ccnc2[nH]ccc12 [Example 17, N-(3-(3-((1H-pyrrolo[2,3-b]pyridin-4-yl)methyl)ureido)propyl)-3-phenylpropiolamide] |  | ≤ 10 |
| N#C/N=C(\NCCNC(=O)C#Cc1ccccc1)NCc1ccnc2[nH]ccc12 [Example 15, (Z)—N-(2-(3-((1H-Pyrrolo[2,3-b]pyridin-4-yl)methyl)-2-cyanoguanidino)ethyl)-3-phenylpropiolamide] |  | ≤ 10 |
| S=C(NCc1ccccc1-c1cocn1)NCc1ccnc2[nH]ccc12 [Example 115, 1-((1H-pyrrolo[2,3-b]pyridin-4-yl)methyl)-3-(2-(oxazol-4-yl)benzyl)thiourea] | ≤ 1 |  |
| O=C(NCc1ccnc2[nH]ccc12)NC1CN(C(=O)C#Cc2ccccc2)C1 [Example 57, 1-((1H-pyrrolo[2,3-b]pyridin-4-yl)methyl)-3-(1-(3-phenylpropioloyl)azetidin-3-yl)urea] |  | ≤ 1 |

| SMILES | IC50 [1] [µM] | IC50 [µM] |
| --- | --- | --- |
| CC#CC(=O)Nc1cccc(CN/C(=N\C#N)NCc2ccnc3[nH]ccc23)c1 [Example 14, (E)-N-(3-((3-((1H-Pyrrolo[2,3-b]pyridin-4-yl)methyl)-2-cyanoguanidino)methyl)phenyl)but-2-ynamide] | ≤ 20 |  |
| CC#CC(=O)Nc1cc(Cl)ccc1CNC(=S)NCc1ccnc2[nH]ccc12 [Example 82, N-(2-((3-((1H-pyrrolo[2,3-b]pyridin-4-yl)methyl)thioureido)methyl)-5-chlorophenyl)but-2-ynamide] | ≤ 1 |  |
| C=CC(=O)Nc1ccccc1CNS(=O)(=O)NCc1ccnc2[nH]ccc12 [Example 39, N-(2-(((N-((1H-pyrrolo[2,3-b]pyridin-4-yl)methyl)sulfamoyl)amino)methyl)phenyl)acrylamide] | ≤ 10 |  |
| CC#CC(=O)Nc1cccc(CNC(=O)NCc2ccnc3[nH]ccc23)c1 [Example 3, N-(3-((3-((1H-Pyrrolo[2,3-b]pyridin-4-yl)methyl)ureido)methyl)phenyl)but-2-ynamide] |  | ≤ 1 |
| Nc1cccc(CNC(=O)NCc2ccnc3[nH]cc(Cl)c23)c1 [Example 52, 1-(3-aminobenzyl)-3-((3-chloro-1H-pyrrolo[2,3-b]pyridin-4-yl)methyl)urea] | 7.1 |  |
| O=C(C#Cc1ccccc1)NCc1ccccc1CNC(=O)NCc1ccnc2[nH]ccc12 [Example 21, N-(2-((3-((1H-pyrrolo[2,3-b]pyridin-4-yl)methyl)ureido)methyl)benzyl)-3-phenylpropiolamide] |  | ≤ 1 |
| NCC(=O)Nc1cccc(CNC(=S)NCc2ccnc3[nH]ccc23)c1 [Example 112, N-(3-((3-((1H-Pyrrolo[2,3-b]pyridin-4-yl)methyl)thioureido)methyl)phenyl)-2-aminoacetamide] | ≤ 20 |  |
| CN(C(=O)C#Cc1ccccc1)c1cccc(CNC(=S)NCc2ccnc3[nH]ccc23)c1 [Example 117, N-(3-((3-((1H-pyrrolo[2,3-b]pyridin-4-yl)methyl)thioureido)methyl)phenyl)-N-methyl-3-phenylpropiolamide] | ≤ 10 |  |
| O=C(C#Cc1ccccc1)Nc1cccc(CNC(=O)NCc2ccnc3[nH]cc(Br)c23)c1 [Example 63, N-(3-((3-((3-bromo-1H-pyrrolo[2,3-b]pyridin-4-yl)methyl)ureido)methyl)phenyl)-3-phenylpropiolamide] |  | ≤ 1 |
| O=C(NCc1ccccc1-c1cscn1)NCc1ccnc2[nH]ccc12 [Example 120, 1-((1H-pyrrolo[2,3-b]pyridin-4-yl)methyl)-3-(2-(thiazol-4-yl)benzyl)urea] | ≤ 1 |  |
| O=C(C#Cc1ccccc1)Nc1cccc(CNC(=O)NCc2ccnc3[nH]cc(F)c23)c1 [Example 62, N-(3-((3-((3-fluoro-1H-pyrrolo[2,3-b]pyridin-4-yl)methyl)ureido)methyl)phenyl)-3-phenylpropiolamide] |  | ≤ 1 |
| NCc1cccc(NC(=S)NCc2ccnc3[nH]ccc23)c1 [Example 9, 1-((1H-Pyrrolo[2,3-b]pyridin-4-yl)methyl)-3-(3-(aminomethyl)phenyl)thiourea] |  | ≤ 20 |
| O=C(CCBr)Nc1cccc(CNC(=S)NCc2ccnc3[nH]ccc23)c1 [Example 36, N-(3-((3-((1H-pyrrolo[2,3-b]pyridin-4-yl)methyl)thioureido)methyl)phenyl)-3-bromopropanamide] | ≤ 20 |  |
| O=C(C#Cc1ccccc1)NCCCC(=O)NCc1ccnc2[nH]ccc12 [Example 18, N-((1H-pyrrolo[2,3-b]pyridin-4-yl)methyl)-4-(3-phenylpropiolamido)butanamide] |  | ≤ 1 |
| C=CC(=O)Nc1ccc(C(F)(F)F)cc1CNC(=S)NCc1ccnc2[nH]ccc12 [Example 33, N-(2-((3-((1H-pyrrolo[2,3-b]pyridin-4-yl)methyl)thioureido)methyl)-4-(trifluoromethyl)phenyl)acrylamide] | ≤ 20 |  |
| CN(CCNC(=O)NCc1ccnc2[nH]ccc12)C(=O)C#Cc1ccccc1 [Example 20, N-(2-(3-((1H-pyrrolo[2,3-b]pyridin-4-yl)methyl)ureido)ethyl)-N-methyl-3-phenylpropiolamide] |  | ≤ 10 |
| O=C(NCc1ccnc2[nH]ccc12)NC1CN(C(=O)C#CC2CCCCC2)C1 [Example 119, 1-((1H-pyrrolo[2,3-b]pyridin-4-yl)methyl)-3-(1-(3-cyclohexylpropioloyl)azetidin-3-yl)urea] | ≤ 1 |  |

From patent US9174984B2, “Chemical compounds” (GlaxoSmithKline Intellectual Property (No. 2) Limited, priority 2011, dated 2015)
